# “Also recorded” adds a separate entry of the source. Where two headings read alike, the source gives them in different places.
# How the values were obtained:
# Format in all cases: in vivo, human
# [1] = Plasma noribogaine pharmacokinetics, ascending single oral dose, healthy volunteers; details: for CL/F / AUC(0-inf) / Cmax / Tmax / Vd/F / AUC(0-t) / half-life: plasma; for AUC(0-inf) / Cmax / Tmax / Vd/F / AUC(0-t) / half-life: human; for AUC(0-t): read-out: AUC0-216
# [2] = test system: healthy, drug-free male volunteers; test: Pupillary miosis assessed by pupillometry
# Experimental: (§1) Pulse oximetry and capnography data were collected continuously using a GE Carescape B650 monitoring system from 2 hours prior to dosing and until six hours after dosing, and thereafter at 12, 24, 48 and 72 hours post-dosing. […] Pupillary miosis was assessed by pupillometry.
# [3] = test system: healthy, drug-free male volunteers; test: Cold pressor test (analgesic effect)
# Experimental: Analgesic effect was assessed based on duration of hand immersion in ice water and on visual analog scale (VAS) pain scores upon hand removal from the water bath.
# (§2) Safety and tolerability of noribogaine were tested in the group of volunteers from Example 1. […] Safety evaluations included clinical monitoring, recording of adverse events (AEs), safety laboratory tests, vital signs, ECG telemetry from −2 h to 6 h after dosing, and 12-lead electrocardiograms (ECGs) up to 216 hours post-dosing.
# [4] = test system: healthy, drug-free male volunteers; test: Safety and tolerability of noribogaine in healthy humans (adverse events, vital signs, ECG)
# Experimental: as §1, §2
# [5] = Serum noribogaine pharmacokinetics in patients, Phase IB study; details: for Vd/F / AUC(0-t) / Cmax / Tmax / AUC / half-life: human, serum, opioid-dependent patients, mean ± SD; for Vd/F: unit inferred; for AUC: read-out: AUC(0-¥)
# Experimental: (§3) The efficacy of noribogaine in humans was evaluated in opioid-dependent participants in a randomized, placebo-controlled, double-blind trial. […] See U.S. application Ser. No. 14/214,157, filed Mar. 14, 2014 and Ser. No. 14/346,655, filed Mar. 21, 2014, which are incorporated herein by reference in their entireties.
# (§4) Three cohorts of nine (9) subjects (6 administered noribogaine and 3 administered placebo in each cohort) were evaluated for tolerability, pharmacokinetics, and efficacy. Cohort 1 received a single dose of 60 mg noribogaine or placebo. Cohort 2 received a single dose of 120 mg noribogaine or placebo. Cohort 3 received a single dose of 180 mg noribogaine or placebo.
# [6] = test system: opioid-dependent participants; test: Time to resumption of morphine (opioid substitution treatment, OST)
# Experimental: as §3, §4
# [7] = test system: opioid-dependent participants; test: Opiate withdrawal scales COWS, SOWS, OOWS
# Experimental: Patients were evaluated based on the Clinical Opiate Withdrawal Scale (COWS), Subjective Opiate Withdrawal Scale (SOWS), and Objective Opiate Withdrawal Scale (OOWS) scoring systems over the period of time between administration of noribogaine (or placebo) until resumption of OST. These scales are outlined in Guidelines for the Psychosocially Assisted Pharmacological Treatment of Opioid Dependence, World Health Organization, Geneva (2009), Annex 10, which is incorporated herein by reference in its entirety. The scales measure the intensity of withdrawal symptoms, based on clinical, subjective, and objective indicia.
# [8] = test system: opioid-dependent participants; test: QT interval prolongation in opioid-dependent patients; details: 60, 120, 180 mg, first 24 hours post administration; correlated with serum concentration
# Experimental: Patients' QT intervals were evaluated at regular time points throughout the study.
# [9] = healthy male volunteers, single oral 3 mg noribogaine, mean (n = 6)
# [10] = healthy male volunteers, single oral 10 mg noribogaine, mean (n = 6)
# [11] = healthy male volunteers, single oral 30 mg noribogaine, mean (n = 6)
# [12] = healthy male volunteers, single oral 60 mg noribogaine, mean (n = 6)
# [13] = healthy volunteers, 3-60 mg single oral doses
# [14] = after adjusting for baseline differences, p>0.9
compound,measurement,setting,value
CC[C@H]1CC2C[C@H]3c4[nH]c5ccc(O)cc5c4CCN(C2)C13 [Noribogaine],CL/F,[1]; [9],41.4 L/h
same,CL/F,[1]; [10],42.3 L/h
same,CL/F,[1]; [11],46.9 L/h
same,CL/F,[1]; [12],34.0 L/h
same,Volume of distribution across dose groups,[1]; [13],1417 to 3086 L
same,dose dependence of Cmax and AUC,[1]; [13],increased linearly with dose
same,time of peak concentrations after oral dosing,[1]; [13],2 to 3 h
same,AUC(0-inf),[1]; [9],74.2 ng·h/mL
same,Cmax,[1]; [9],5.2 ng/mL
same,Tmax,[1]; [9],1.9 h
same,Vd/F,[1]; [9],2490 L
same,AUC(0-t),[1]; [9],72.2 ng·h/mL
same,half-life,"[1]; healthy male volunteers, single oral 3 mg noribogaine, mean (n = 6), read-out: t1/2 (converted)",40.9 h
same,AUC(0-inf),[1]; [10],254 ng·h/mL
same,Cmax,[1]; [10],14.5 ng/mL
same,Tmax,[1]; [10],2.9 h
same,Vd/F,[1]; [10],3090 L
same,AUC(0-t),[1]; [10],251 ng·h/mL
same,half-life,"[1]; healthy male volunteers, single oral 10 mg noribogaine, mean (n = 6), read-out: t1/2 (converted)",49.2 h
same,AUC(0-inf),[1]; [11],700 ng·h/mL
same,Cmax,[1]; [11],55.9 ng/mL
same,Tmax,[1]; [11],1.8 h
same,Vd/F,[1]; [11],1850 L
same,AUC(0-t),[1]; [11],678 ng·h/mL
same,half-life,"[1]; healthy male volunteers, single oral 30 mg noribogaine, mean (n = 6), read-out: t1/2 (converted)",27.6 h
same,AUC(0-inf),[1]; [12],1960 ng·h/mL
same,Cmax,[1]; [12],116 ng/mL
same,Tmax,[1]; [12],2.4 h
same,Vd/F,[1]; [12],1420 L
same,AUC(0-t),[1]; [12],1940 ng·h/mL
same,half-life,"[1]; healthy male volunteers, single oral 60 mg noribogaine, mean (n = 6), read-out: t1/2 (converted)",29.1 h
same,half-life,"[1]; male, healthy volunteers, 3-60 mg single oral doses, read-out: Mean half-life estimates across dose groups",28 to 50 h
same,"pupil diameter, each dose group compared with placebo by ANOVA",[2]; [14],no statistically significant differences
same,pupillary constriction,[2]; [13],no evidence of pupillary constriction
same,"VAS pain scores, each dose group compared with placebo by ANOVA","[3]; after adjusting for baseline differences, p=0.17",no statistically significant differences
same,"duration of hand immersion, each dose group compared with placebo by ANOVA",[3]; [14],no statistically significant differences
same,analgesic effect in the cold pressor test,"[3]; healthy volunteers, 3-60 mg single oral doses, 1° C. water",no analgesic effect
same,"Adverse events, Mild","[4]; healthy volunteers, 3 mg dose",Dizziness; also recorded: Epistaxis; also recorded: Headache; also recorded: Back pain
same,"Adverse events, Moderate","[4]; healthy volunteers, 3 mg dose",Headache
same,number of adverse events reported,"[4]; healthy volunteers, 3 mg dose group",five adverse events were reported by two subjects
same,"Adverse events, Mild","[4]; healthy volunteers, 10 mg dose",Headache
same,number of adverse events reported,"[4]; healthy volunteers, 10 mg dose group",one adverse event was reported by single subjects
same,"Adverse events, Mild","[4]; healthy volunteers, 30 mg dose",Headache
same,number of adverse events reported,"[4]; healthy volunteers, 30 mg dose group",one adverse event was reported by single subjects
same,"changes in oximetry, capnography, respiratory rate","[4]; healthy volunteers, 3-60 mg","no changes in oximetry or capnography, or changes in respiratory rate"
same,changes in vital signs or safety laboratory tests,"[4]; healthy volunteers, 3-60 mg",no changes in vital signs or safety laboratory tests of note
same,QTcF values,"[4]; healthy volunteers, 3-60 mg, at any time",≤ 500 ms
same,intensity of adverse events,"[4]; healthy volunteers, all groups, all resolved prior to study completion",mild-moderate intensity
same,single increase in QTcF,"[4]; one subject dosed with 10 mg, 24 hours post-dosing",> 60 ms
same,dose dependence of maximum serum concentration (Cmax),"[5]; 60, 120, 180 mg cohorts",increased in a dose-dependent manner
same,Vd/F,[5]; Cohort 2 (120 mg),2110 ± 1640 L
same,Vd/F,[5]; Cohort 3 (180 mg),1030 ± 365 L
same,AUC(0-t),[5]; Cohort 1 (60 mg),2020 ± 614 ng·h/mL
same,Cmax,[5]; Cohort 1 (60 mg),81.6 ± 23.8 ng/mL
same,Tmax,[5]; Cohort 1 (60 mg),3.59 ± 0.92 h
same,AUC,[5]; Cohort 1 (60 mg),2060 ± 609 ng·h/mL
same,AUC(0-t),[5]; Cohort 2 (120 mg),3230 ± 1540 ng·h/mL
same,Cmax,[5]; Cohort 2 (120 mg),173 ± 30.7 ng/mL
same,Tmax,[5]; Cohort 2 (120 mg),2.99 ± 1.23 h
same,half-life,[5]; Cohort 2 (120 mg),30.4 ± 9.14 h
same,AUC,[5]; Cohort 2 (120 mg),3280 ± 1580 ng·h/mL
same,AUC(0-t),[5]; Cohort 3 (180 mg),6520 ± 2910 ng·h/mL
same,Cmax,[5]; Cohort 3 (180 mg),268 ± 46.9 ng/mL
same,Tmax,[5]; Cohort 3 (180 mg),4.41 ± 1.8 h
same,half-life,[5]; Cohort 3 (180 mg),23.9 ± 5.54 h
same,AUC,[5]; Cohort 3 (180 mg),6890 ± 3490 ng·h/mL
same,average time to resumption of opioids,"[6]; single 120 mg dose, given 2 hours after last morphine dose",greater than 20 hours
same,Time to resumption of OST compared with untreated patients and 60 mg group,[6]; single 180 mg dose,"still longer than untreated patients (7 hours, not shown) or those administered 60 mg noribogaine"
same,"withdrawal symptoms (COWS, OOWS, SOWS), first six hours following dosing","[7]; single 120 mg dose, compared with the other patients",generally experienced fewer withdrawal symptoms than the other patients
same,"withdrawal symptoms (COWS, OOWS, SOWS), noribogaine compared with placebo","[7]; single 60, 120 or 180 mg dose, first six hours following dosing",Patients administered placebo generally experienced more withdrawal symptoms than patients who were administered noribogaine
same,QT interval prolongation (ΔQTcl),[8],dose-dependent increase in QT interval prolongation

# Reference: patent US20150231147A1, “METHODS FOR ACUTE AND LONG-TERM TREATMENT OF DRUG ADDICTION” (DemeRx, Inc., priority 2014, published 2015)
